Assay results taken from US20230399378A1, “PEPTIDE-BASED DELIVERY OF AGENTS” (THE FLOREY INSTITUTE OF NEUROSCIENCE AND MENTAL HEALTH, priority 2020, published 2023).
Square brackets hold non-standard residues; d marks the D form. Side chains are listed from the residue outwards. Peptide text beside a SMILES is read from it. PMO = not defined here; AEEA = NCCOCCOCC(=O)O; Ahx = NCCCCCC(=O)O; Mpa = O=C(O)CCS

What was measured:
SMN2 = SMN2 splice-switching for exon 7 inclusion by RT-qPCR in SMA Type I patient-derived fibroblasts (Example 2); assay type: cell-based, human; conditions: for exon-7 inclusion activity, change in words: 0.5 μM and 1 μM, versus comparator; for level of exon-7 inclusion activity (full length SMN2/HPRT1, normalised to untreated control set to 1): treated 4 hrs, then 20 hrs growth medium, mean±SEM
Description: FIG. 3. (A) SMN2 pre-mRNA exon-7 skipping and production of 80-90% SMN2Δ7 mRNA transcripts. Peptide-PMO binding to Intron-splicing silencer (ISS-N1) and restoration of SMN2 splicing and production of full-length SMN2 mRNA transcripts. The positions of forward and reverse primers highlighted on full-length mRNA. (B)-(C) Effect of administration of peptides linked to PMO for SMN2 exon 7 inclusion, measured as change in the level of full length SMN2/HPRT1 in SMA patient-derived fibroblasts, each at two concentrations, 0.5 μM and 1 μM (or 1 μM and 5 μM in the case of PMO alone). UT, untreated. (B) For PMO constructs, from left to right: PMO; ApoE(141-150)-PMO; ApoE(133-150)-PMO. (C) For PMO constructs, from left to right: PMO; HA2-PMO; GALA-PMO; NLS-PMO; ApoE(141-150)-PMO; HA2-ApoE(141-150)-PMO; GALA-ApoE(141-150)-PMO; NLS-ApoE(141-150)-PMO; H4-ApoE(141-150)-PMO; A4-ApoE(141-150)-PMO. *P<0.05,**P<0.001, ***P<0.0001 cf. Untreated (control) and PMO (1 and 5 μM); #P<0.001 cf. GALA-/NLS-/H4-ApoE(141-150)-PMO (1 μM), ^<0.001 cf. ApoE(133-150)-PMO (0.5 and 1 μM), ^OP<0.001 cf. ApoE(141-150)-PMO (1 μM), ^&P<0.05 cf.
The inventors then evaluated cellular uptake and activity of these peptide-PMO conjugates in SMA Type I patient-derived fibroblasts with two copies of SMN2. Efficiency of uptake was assessed by RT-qPCR using SMN2 splice-switching for exon 7 inclusion (see FIG. 3A).
SMA Type I patient-derived fibroblasts (SMN2^+/+, GM03813, Coriell Cell Repositories) were maintained in Dulbecco's Modified Eagle's Medium (DMEM), supplemented with 10% foetal bovine serum (FBS), 1% Penicillin/Streptomycin and 1% L-glutamine (L-glu) at 37° C. Cells were plated in 6-well plates at a density of 3×10^5/well in 6 well plates one day prior to treatment with PMO and peptide-PMO conjugates. Cells used were from passage 8-22. PMO and the peptide-PMO conjugates were dissolved in nuclease-free water and diluted to appropriate concentrations in Opti-MEM reduced serum medium. Cells were treated for 4 hrs at 37° C. The transfection medium was then removed and replaced with growth medium in which the cells were incubated for 20 hrs.
Cells were washed with PBS and total cellular RNA was extracted using Trizol (TRI Reagent®, Sigma) according to the manufacturer's instructions (Life Technologies). 400 ng purified RNA was reverse transcribed into cDNA using BioRad iScript Reverse Transcription Supermix kit according to the manufacturer's instructions. The reverse transcription was performed using the Veriti Thermal Cycler (ThermoFisher Scientific) with the thermal cycling conditions: 25° C. for 5 min, 46° C. for 20 min, 95° C. for 1 min followed by a 4° C. holding period.
Quantitative PCR (20 ng cDNA/well) was carried out in a 96-well plate in triplicate using SsoAdvanced Universal SYBR Green Supermix on a Biorad CFX96 Touch™ Real-Time PCR detection system. The amplification was carried out using full-length SMN2-specific primers: Ex-6 Forward 5′-[…]-3′ (SEQ ID NO:10) and Ex7-8 reverse 5′[…]-3′ (SEQ ID NO:11). Human HPRT1 was used as the internal reference gene with forward primer sequence 5′-[…]-3′ (SEQ ID NO:12) and reverse primer sequence 5′-[…]-3′ (SEQ ID NO:13). The ΔΔCt method was used to correct the Ct values against the HPRT1 Ct values. The values obtained were normalised to the untreated control values which were set to 1. Statistical analysis was carried out using one-way ANOVA with post-hoc Bonferroni for multiple groups comparison (GraphPad Prism V.8, 2018). All data are expressed as mean±SEM from at least three independent experiments with p<0.05 considered significant.

[1] = Serum stability in 50% human serum at 37 °C (RP-HPLC, one-phase decay half-life); conditions: for proteolytic stability compared to the parent L-peptides: 50% human serum, 37° C.; for half-life at 500 µM: human, serum (50% human serum)
Description: Serum stability analysis was conducted for each peptide (7×50 nmol) shown in Table 3 in 50% human serum (100 μL) at 37° C. At the end of each time point (0, 10, 30, 60, 120, 240, and 480 min), 1 M guanidine hydrochloride solution (200 μL) and ice-cold acetonitrile (600 μL) were added, and the serum-peptide solution was centrifuged at 14000 g for 10 min. The supernatant was lyophilised and redissolved in water (200 μL). All samples were analysed by RP-HPLC in the presence of phenol (50 nmol) as an internal standard, using water and acetonitrile containing 0.1% TFA, with a gradient of 10-80% acetonitrile over 30 min, and a flow rate of 1.5 mL/min. The percentage of peptide remaining was measured based on the area under curve. The percentage of peptide remaining versus time data was fitted to a non-linear one-phase exponential decay model in GraphPad Prism 9.2.0 to determine the half-life for each peptide.

Compound	exon-7 inclusion activity, change in words (SMN2)	half-life at 500 µM [1] [min]	also measured
Ac-VQRKRQKLMP-X-LRKLRKRLLR-X-C-PMO [NLS-ApoE(141-150)-PMO]	significant increase in the activity	–	–
CC[C@@H](C)[C@@H](NC(=O)[C@@H](C)NC(=O)[C@@H](Cc1c[nH]cn1)NC(=O)[C@@H](Cc1ccccc1)NC(=O)[C@H](NC(=O)[C@@H](Cc1c[nH]cn1)NC(=O)CNC(=O)CNC(=O)[C@@H](Cc1c[nH]c2ccccc12)NC(=O)[C@@H](Cc1c[nH]cn1)NC(=O)COCCOCCNC(=O)CCS)[C@H](C)CC)C(=O)N[C@H](C)C(=O)N[C@H](Cc1c[nH]cn1)C(=O)N[C@H](Cc1ccccc1)C(=O)N[C@H](CC(C)C)C(=O)NCC(=O)NCCOCCOCC(=O)N[C@@H](CCCCN)C(=O)NCCOCCOCC(=O)N[C@H](CCCNC(=N)N)C(=O)N[C@H](CC(C)C)C(=O)N[C@H](CC(C)C)C(=O)N[C@H](CCCNC(=N)N)C(=O)N[C@H](CCCCN)C(=O)N[C@H](CCCNC(=N)N)C(=O)N[C@H](CC(C)C)C(=O)N[C@H](CCCCN)C(=O)N[C@H](CCCNC(=N)N)C(=O)N[C@H](CC(C)C)C(=O)N[C@H](Cc1c[nH]cn1)C(=O)N[C@H](CO)C(=O)N[C@H](C)C(=O)N[C@H](CC(C)C)C(=O)N[C@H](CCCNC(=N)N)C(=O)N[C@@H](C(=O)N[C@H](CCCNC(=N)N)C(=O)N[C@H](CC(C)C)C(=O)O)C(C)C [RI TPA-HA2-ApoE(133-150), TPA-mPEG-hwgghifhaiahflg-mPEG-K-mPEG-rllrkrlkrlhsalrvrl] ([Mpa][AEEA][dH][dW]GG[dH][dI][dF][dH][dA][dI][dA][dH][dF][dL]G[AEEA]K[AEEA][dR][dL][dL][dR][dK][dR][dL][dK][dR][dL][dH][dS][dA][dL][dR][dV][dR][dL]-OH)	–	96	proteolytic stability compared to the parent L-peptides [1]: significantly higher proteolytic stability
Ac-HHHH-X-LRKLRKRLLR-X-C-PMO [H4-ApoE(141-150)-PMO]	–	–	level of exon-7 inclusion activity (full length SMN2/HPRT1, normalised to untreated control set to 1) (SMN2; 0.5 μM): 1.81±0.02; level of exon-7 inclusion activity (full length SMN2/HPRT1, normalised to untreated control set to 1) (SMN2; 1 μM): 2.0±0.05
Myr-LRKLRKRLLR-X-C-PMO [Myr-ApoE(141-150)-PMO]	–	–	exon-7 inclusion activity (full length SMN2/HPRT1, normalised to untreated control set to 1) (SMN2; concentration not given, compared to acetylated counterpart): 1.91±0.03
CC[C@@H](C)[C@@H](NC(=O)[C@@H](C)NC(=O)[C@@H](Cc1c[nH]cn1)NC(=O)[C@@H](Cc1ccccc1)NC(=O)[C@H](NC(=O)[C@@H](Cc1c[nH]cn1)NC(=O)CNC(=O)CNC(=O)[C@@H](Cc1c[nH]c2ccccc12)NC(=O)[C@@H](Cc1c[nH]cn1)NC(=O)COCCOCCNC(=O)CCS)[C@H](C)CC)C(=O)N[C@H](C)C(=O)N[C@H](Cc1c[nH]cn1)C(=O)N[C@H](Cc1ccccc1)C(=O)N[C@H](CC(C)C)C(=O)NCC(=O)NCCOCCOCC(=O)N[C@@H](CCCCN)C(=O)NCCOCCOCC(=O)N[C@H](CCCNC(=N)N)C(=O)N[C@H](CC(C)C)C(=O)N[C@H](CC(C)C)C(=O)N[C@H](CCCNC(=N)N)C(=O)N[C@H](CCCCN)C(=O)N[C@H](CCCNC(=N)N)C(=O)N[C@H](CC(C)C)C(=O)N[C@H](CCCCN)C(=O)N[C@H](CCCNC(=N)N)C(=O)N[C@H](CC(C)C)C(=O)O [RI TPA-HA2-ApoE(141-150), TPA-mPEG-hwgghifhaiahflg-mPEG-K-mPEG-rllrkrlkrl] ([Mpa][AEEA][dH][dW]GG[dH][dI][dF][dH][dA][dI][dA][dH][dF][dL]G[AEEA]K[AEEA][dR][dL][dL][dR][dK][dR][dL][dK][dR][dL]-OH)	–	24	–
CC[C@H](C)[C@H](NC(=O)[C@H](C)NC(=O)[C@H](Cc1c[nH]cn1)NC(=O)[C@H](Cc1ccccc1)NC(=O)[C@H](CC(C)C)NC(=O)CNC(=O)COCCOCCNC(=O)CCS)C(=O)N[C@@H](C)C(=O)N[C@@H](Cc1c[nH]cn1)C(=O)N[C@@H](Cc1ccccc1)C(=O)N[C@H](C(=O)N[C@@H](Cc1c[nH]cn1)C(=O)NCC(=O)NCC(=O)N[C@@H](Cc1c[nH]c2ccccc12)C(=O)N[C@@H](Cc1c[nH]cn1)C(=O)NCCOCCOCC(=O)N[C@@H](CC(C)C)C(=O)N[C@@H](CCCNC(=N)N)C(=O)N[C@H](C(=O)N[C@@H](CCCNC(=N)N)C(=O)N[C@@H](CC(C)C)C(=O)N[C@@H](C)C(=O)N[C@@H](CO)C(=O)N[C@@H](Cc1c[nH]cn1)C(=O)N[C@@H](CC(C)C)C(=O)N[C@@H](CCCNC(=N)N)C(=O)N[C@@H](CCCCN)C(=O)N[C@@H](CC(C)C)C(=O)N[C@@H](CCCNC(=N)N)C(=O)N[C@@H](CCCCN)C(=O)N[C@@H](CCCNC(=N)N)C(=O)N[C@@H](CC(C)C)C(=O)N[C@@H](CC(C)C)C(=O)N[C@@H](CCCNC(=N)N)C(=O)O)C(C)C)[C@@H](C)CC [TPA-HA2-ApoE(133-150), TPA-mPEG-GLFHAIAHFIHGGWH-mPEG-LR VRLASHLRKLRKRLLR] ([Mpa][AEEA]GLFHAIAHFIHGGWH[AEEA]LRVRLASHLRKLRKRLLR-OH)	–	66	–
CC[C@@H](C)[C@@H](NC(=O)[C@@H](C)NC(=O)[C@@H](Cc1c[nH]cn1)NC(=O)[C@@H](Cc1ccccc1)NC(=O)[C@H](NC(=O)[C@@H](Cc1c[nH]cn1)NC(=O)CNC(=O)CNC(=O)[C@@H](Cc1c[nH]c2ccccc12)NC(=O)[C@@H](Cc1c[nH]cn1)NC(C)=O)[C@H](C)CC)C(=O)N[C@H](C)C(=O)N[C@H](Cc1c[nH]cn1)C(=O)N[C@H](Cc1ccccc1)C(=O)N[C@H](CC(C)C)C(=O)NCC(=O)NCCOCCOCC(=O)N[C@@H](CCCCNC(=O)COCCOCCNC(=O)CCS)C(=O)NCCOCCOCC(=O)N[C@H](CCCNC(=N)N)C(=O)N[C@H](CC(C)C)C(=O)N[C@H](CC(C)C)C(=O)N[C@H](CCCNC(=N)N)C(=O)N[C@H](CCCCN)C(=O)N[C@H](CCCNC(=N)N)C(=O)N[C@H](CC(C)C)C(=O)N[C@H](CCCCN)C(=O)N[C@H](CCCNC(=N)N)C(=O)N[C@H](CC(C)C)C(=O)N[C@H](Cc1c[nH]cn1)C(=O)N[C@H](CO)C(=O)N[C@H](C)C(=O)N[C@H](CC(C)C)C(=O)N[C@H](CCCNC(=N)N)C(=O)N[C@@H](C(=O)N[C@H](CCCNC(=N)N)C(=O)N[C@H](CC(C)C)C(=O)O)C(C)C [RI Br-HA2-(TPA)-ApoE(133-150), Ac-hwgghifhaiahflg-mPEG-K(mPEG-TPA)-mPEG-rllrkrlkrlhsalrvrl] (Ac-[dH][dW]GG[dH][dI][dF][dH][dA][dI][dA][dH][dF][dL]G[AEEA]K([AEEA-Mpa])[AEEA][dR][dL][dL][dR][dK][dR][dL][dK][dR][dL][dH][dS][dA][dL][dR][dV][dR][dL]-OH)	–	96	proteolytic stability compared to the parent L-peptides [1]: significantly higher proteolytic stability
Ac-AAAA-X-LRKLRKRLLR-X-C-PMO [A4-ApoE(141-150)-PMO]	significant decrease	–	–
Ac-WEAALAEALAEALAEHLAEALAEALEALAA-X-LRKLRKRLLR-X-C-PMO [GALA-ApoE(141-150)-PMO]	significant increase in the activity	–	level of exon-7 inclusion activity (full length SMN2/HPRT1, normalised to untreated control set to 1) (SMN2; 0.5 μM): 1.41±0.04; level of exon-7 inclusion activity (full length SMN2/HPRT1, normalised to untreated control set to 1) (SMN2; 1 μM): 2.14±0.14
Ac-WEAALAEALAEALAEHLAEALAEALEALAA-X-C-PMO (Ac-WEAALAEALAEALAEHLAEALAEALEALAA[Ahx]C-{PMO}; reading uncertain; also: printed as Ac-WEAALAEALAEALAEHLAEALAEALEALAA-X-C-PMO) [GALA-PMO]	no significant increase	–	–
